Measurements published in patent US6716851B2, “Substituted 2-aryl-4-arylaminopyrimidines and analogs as activators or caspases and inducers of apoptosis and the use thereof” (Cytovia, Inc., priority 2000, dated 2004).

Legend:
T-47D cells = assay: Caspase cascade activation (N-(Ac-DEVD)-N'-ethoxycarbonyl-R110 fluorogenic substrate) in T-47D cells; format: cell-based, Human; conditions: 48 h incubation; for EC50: Homo sapiens, T47D, caspase activation potency, read-out: T47 EC50; for T47 Ratio 48 hr: caspase activity: ratio of net RFU of test compound to control
Description: (§1) Human breast cancer cell lines T-47D and ZR-75-1 were grown according to media component mixtures designated by American Type Culture Collection +10% FCS (Invitrogen Corporation, Life Technologies division), in a 5% CO2-95% humidity incubator at 37° C. T-47D and ZR-75-1 cells were maintained at a cell density between 50 and 80% confluency at a cell density of 0.1 to 0.6×10^6 cells/ml. Cells were harvested at 600× g and resuspended at 0.65×10^6 cells/ml into appropriate media +10% FCS. An aliquot of […] of cells was added to a well of a […] microtiter plate containing 2.5 μl of a 10% DMSO in RPMI-1640 media solution containing 0.16 to 100 μM of 4-(3-methoxyanilino)-2-(2-pyridinyl)-6-(trifluoromethyl)pyrimidine or other test compound (0.016 to 10 μM final). An aliquot of 22.5 μl of cells was added to a well of a 384-well microtiter plate containing 2.5 μl of a 10% DMSO in RPMI-1640 media solution without test compound as the control sample. The samples were mixed by agitation and then incubated at 37° C. for 48 h in a 5% CO2-95% humidity incubator. After incubation, the samples were removed from the incubator and 25 μl of a solution containing 14 μM of N-(Ac-DEVD)-N′-ethoxycarbonyl-R110 fluorogenic substrate (Cytovia, Inc.; WO99/18856), 20% sucrose (Sigma), 20 mM DTT (Sigma), 200 mM NaCl (Sigma), 40 mM Na PIPES buffer pH 7.2 (Sigma), and 500 μg/ml lysolecithin (Calbiochem) was added. The samples were mixed by agitation and incubated at room temperature. Using a fluorescent plate reader (Model SpectraMax Gemini, Molecular Devices), an initial reading (T=0) was made approximately 1-2 min after addition of the substrate solution, employing excitation at 485 nm and emission at 530 nm, to determine the background fluorescence of the control sample. After the 3 h incubation, the samples were read for fluorescence as above (T=3 h).
(§2) The Relative Fluorescence Unit values (RFU) were used to calculate the sample readings as follows:
(§3) RFU(T=3h)−Control RFU(T=0)=Net RFU(T=3h)
(§4) The activity of caspase cascade activation was determined by the ratio of the net RFU value for 4-(3-methoxyanilino)-2-(2-pyridinyl)-6-(trifluoromethyl)pyrimidine or other test compound to that of control samples. The EC50 (nM) was determined by a sigmoidal dose-response calculation (Prism 2.0, GraphPad Software Inc.).

ZR-75-1 cells = assay: Caspase cascade activation (N-(Ac-DEVD)-N'-ethoxycarbonyl-R110 fluorogenic substrate) in ZR-75-1 cells; format: cell-based, Human; conditions: ZR-75-1, 48 h incubation; for EC50: Homo sapiens, caspase activation potency; for ZR Ratio 48 hr: caspase activity: ratio of net RFU of test compound to control
Description: as §1, §2, §3, §4

SMILES: COc1ccc(OC)c(Nc2cc(C(F)(F)F)nc(-c3ccncc3)n2)c1 [Example 42, 4-(2,5-Dimethoxyanilino)-2-(4-pyridinyl)-6-(trifluoromethyl)pyrimidine]
- EC50 (T-47D cells): 43 nM
- T47 Ratio 48 hr (T-47D cells): 5.8
- EC50 (ZR-75-1 cells): 145 nM
- ZR Ratio 48 hr (ZR-75-1 cells): 2.5

SMILES: COCc1cc(Nc2cccc(OC)c2)nc(-c2csc(C)n2)n1 [Example 44, 4-(3-Methoxyanilino)-6-(methoxymethyl)-2-(2-methyl-1-3-thiazol-4-yl)pyrimidine]
- EC50 (T-47D cells): > 5000 nM
- T47 Ratio 48 hr (T-47D cells): 1.6
- EC50 (ZR-75-1 cells): > 5000 nM
- ZR Ratio 48 hr (ZR-75-1 cells): 1.9

SMILES: COCc1cc(Nc2cc(OC)ccc2OC)nc(-c2csc(C)n2)n1 [Example 45, 4-(2,5-Dimethoxyanilino)-6-(methoxymethyl)-2-(2-methyl-1-3-thiazol-4-yl)pyrimidine]
- EC50 (T-47D cells): 329 nM
- T47 Ratio 48 hr (T-47D cells): 21.6
- EC50 (ZR-75-1 cells): 387 nM
- ZR Ratio 48 hr (ZR-75-1 cells): 17.3

SMILES: COc1cccc(Nc2cc(N3CCOCC3)nc(-c3ccccc3)n2)c1 [Example 46, 6-Morpholino-4-(3-methoxyanilino)-2-phenyl-pyrimidine]
- EC50 (T-47D cells): > 5000 nM
- T47 Ratio 48 hr (T-47D cells): 1.5
- EC50 (ZR-75-1 cells): > 5000 nM
- ZR Ratio 48 hr (ZR-75-1 cells): 1.4

SMILES: COc1ccc(Cl)c(Nc2cc(C(F)(F)F)nc(-c3cccnc3)n2)c1 [Example 50, 4-(2-Chloro-5-methoxyanilino)-2-(3-pyridinyl)-6-(trifluoromethyl)pyrimidine]
- EC50 (T-47D cells): 172 nM
- T47 Ratio 48 hr (T-47D cells): 10
- EC50 (ZR-75-1 cells): 322 nM
- ZR Ratio 48 hr (ZR-75-1 cells): 5.3

SMILES: COc1ccc(C)c(Nc2cc(C(F)(F)F)nc(-c3cccnc3)n2)c1 [Example 51, 4-(5-Methoxy-2-methylanilino)-2-(3-pyridinyl)-6-(trifluoromethyl)pyrimidine]
- EC50 (T-47D cells): 29 nM
- T47 Ratio 48 hr (T-47D cells): 11
- EC50 (ZR-75-1 cells): 56 nM
- ZR Ratio 48 hr (ZR-75-1 cells): 5.9

SMILES: COc1ccc(Cl)c(Nc2cc(C)nc(-c3ccccn3)n2)c1 [Example 52, 4-(2-Chloro-5-methoxyanilino)-6-methyl-2-(2-pyridinyl)pyrimidine]
- EC50 (T-47D cells): 108 nM
- T47 Ratio 48 hr (T-47D cells): 20.9
- EC50 (ZR-75-1 cells): 98 nM
- ZR Ratio 48 hr (ZR-75-1 cells): 7.2

SMILES: COc1ccc(C)c(Nc2cc(C)nc(-c3ccccn3)n2)c1 [Example 53, 4-(5-Methoxy-2-methylanilino)-6-methyl-2-(2-pyridinyl)pyrimidine]
- EC50 (T-47D cells): 115 nM
- T47 Ratio 48 hr (T-47D cells): 20.4
- EC50 (ZR-75-1 cells): 599 nM
- ZR Ratio 48 hr (ZR-75-1 cells): 6.6

SMILES: COc1ccc(Cl)c(Nc2cc(C(F)(F)F)nc(-c3ccncc3)n2)c1 [Example 54, 4-(2-Chloro-5-methoxyanilino)-2-(4-pyridinyl)-6-(trifluoromethyl)pyrimidine]
- EC50 (T-47D cells): 99 nM
- T47 Ratio 48 hr (T-47D cells): 10.5
- EC50 (ZR-75-1 cells): 101 nM
- ZR Ratio 48 hr (ZR-75-1 cells): 5.9

SMILES: COc1ccc(C)c(Nc2cc(C(F)(F)F)nc(-c3ccncc3)n2)c1 [Example 55, 4-(5-Methoxy-2-methylanilino)-2-(4-pyridinyl)-6-(trifluoromethyl)pyrimidine]
- EC50 (T-47D cells): 21 nM
- T47 Ratio 48 hr (T-47D cells): 8.4
- EC50 (ZR-75-1 cells): 18 nM
- ZR Ratio 48 hr (ZR-75-1 cells): 7.1

SMILES: Cn1cc(Br)c(-c2cccc(Nc3cc(C(F)(F)F)nc(-c4cccnc4)n3)c2)n1 [Example 58, 4-[3-(4-Bromo-1-methyl-1H-pyrazol-3-yl)anilino]-2-(3-pyridinyl)-6-(trifluoromethyl)pyrimidine]
- EC50 (T-47D cells): > 5000 nM
- T47 Ratio 48 hr (T-47D cells): 1.5
- EC50 (ZR-75-1 cells): > 5000 nM
- ZR Ratio 48 hr (ZR-75-1 cells): 1.1

SMILES: Cc1nccc(-c2cccc(Nc3cc(C(F)(F)F)nc(-c4cccnc4)n3)c2)n1 [Example 59, 4-[3-(2-Methyl-pyrimidin-4-yl)anilino]-2-(3-pyridinyl)-6-(trifluoromethyl)pyrimidine]
- EC50 (T-47D cells): > 5000 nM
- T47 Ratio 48 hr (T-47D cells): 1.6
- EC50 (ZR-75-1 cells): > 5000 nM
- ZR Ratio 48 hr (ZR-75-1 cells): 1.1

SMILES: FC(F)(F)c1cc(Nc2cccc(-c3ccccc3)c2)nc(-c2cccnc2)n1 [Example 60, 4-(3-Phenylanilino)-2-(3-pyridinyl)-6-(trifluoromethyl)pyrimidine]
- EC50 (T-47D cells): > 5000 nM
- T47 Ratio 48 hr (T-47D cells): 1.8
- EC50 (ZR-75-1 cells): > 5000 nM
- ZR Ratio 48 hr (ZR-75-1 cells): 1.4

SMILES: O=[N+]([O-])c1cccc(-c2cccc(Nc3cc(C(F)(F)F)nc(-c4cccnc4)n3)c2)c1 [Example 61, 4-[3-(3-Nitrophenyl)anilino]-2-(3-pyridinyl)-6-(trifluoromethyl)pyrimidine]
- EC50 (T-47D cells): > 5000 nM
- T47 Ratio 48 hr (T-47D cells): 1.8
- EC50 (ZR-75-1 cells): > 5000 nM
- ZR Ratio 48 hr (ZR-75-1 cells): 1.2

SMILES: Fc1c(F)c(F)c(Oc2cccc(Nc3cc(C(F)(F)F)nc(-c4cccnc4)n3)c2)c(F)c1F [Example 62, 4-[3-(2,3,4,5,6-Pentafluorophenoxy)anilino]-2-(3-pyridinyl)-6-(trifluoromethyl)pyrimidine]
- EC50 (T-47D cells): > 5000 nM
- T47 Ratio 48 hr (T-47D cells): 1.6
- EC50 (ZR-75-1 cells): > 5000 nM
- ZR Ratio 48 hr (ZR-75-1 cells): 1.3

SMILES: COc1ccc(OC)c(Nc2cc(C(F)(F)F)nc(-c3ccccn3)n2)c1 [Example 63, 4-(2,5-Dimethoxyanilino)-2-(2-pyridinyl)-6-(trifluoromethyl)pyrimidine]
- EC50 (T-47D cells): 18 nM
- T47 Ratio 48 hr (T-47D cells): 8.9
- EC50 (ZR-75-1 cells): 43 nM
- ZR Ratio 48 hr (ZR-75-1 cells): 9.6

SMILES: O=S(=O)(c1ccccc1)c1cccc(Nc2cc(C(F)(F)F)nc(-c3cccnc3)n2)c1 [Example 65, 4-[3-(Phenylsulfone)anilino]-2-(3-pyridinyl)-6-(trifluoromethyl)pyrimidine]
- EC50 (T-47D cells): > 5000 nM
- T47 Ratio 48 hr (T-47D cells): 1.7
- EC50 (ZR-75-1 cells): > 5000 nM
- ZR Ratio 48 hr (ZR-75-1 cells): 1.7

SMILES: O=C(Nc1ccccc1)c1cccc(Nc2cc(C(F)(F)F)nc(-c3cccnc3)n2)c1 [Example 66, 4-[3-(N-phenylamide)anilino]-2-(3-pyridinyl)-6-(trifluoromethyl)pyrimidine]
- EC50 (T-47D cells): > 5000 nM
- T47 Ratio 48 hr (T-47D cells): 1.2
- EC50 (ZR-75-1 cells): > 5000 nM
- ZR Ratio 48 hr (ZR-75-1 cells): 0.9

SMILES: FC(F)(F)c1cc(Nc2cccc(Oc3ccccc3)c2)nc(-c2cccnc2)n1 [Example 67, 4-(3-Phenoxyanilino)-2-(3-pyridinyl)-6-(trifluoromethyl)pyrimidine]
- EC50 (T-47D cells): > 5000 nM
- T47 Ratio 48 hr (T-47D cells): 1.5
- EC50 (ZR-75-1 cells): > 5000 nM
- ZR Ratio 48 hr (ZR-75-1 cells): 1.2

SMILES: Cc1ccc(C)c(Nc2cc(C(F)(F)F)nc(-c3cccnc3)n2)c1 [Example 68, 4-(2,5-Dimethylanilino)-2-(3-pyridinyl)-6-(trifluoromethyl)pyrimidine]
- EC50 (T-47D cells): 247 nM
- T47 Ratio 48 hr (T-47D cells): 20.9
- EC50 (ZR-75-1 cells): 130 nM
- ZR Ratio 48 hr (ZR-75-1 cells): 17.9

SMILES: Cl.Oc1cccc(Nc2cc(C(F)(F)F)nc(-c3ccccn3)n2)c1 [Example 69, 4-(3-Hydroxyanilino)-2-(2-pyridinyl)-6-(trifluoromethyl)pyrimidine hydrochloride]
- EC50 (T-47D cells): 382 nM
- T47 Ratio 48 hr (T-47D cells): 14.2
- EC50 (ZR-75-1 cells): 127 nM
- ZR Ratio 48 hr (ZR-75-1 cells): 10.9

SMILES: COc1cccc(Nc2cc(C(F)(F)F)nc(-c3ccccc3)n2)c1 [Example 73, 4-(3-Methoxyanilino)-2-phenyl-6-(trifluoromethyl)pyrimidine]
- EC50 (T-47D cells): > 5000 nM
- T47 Ratio 48 hr (T-47D cells): 1.6
- EC50 (ZR-75-1 cells): 10000 nM
- ZR Ratio 48 hr (ZR-75-1 cells): 2.6

SMILES: COc1cccc(Nc2cc(C(F)(F)F)nc(-c3cnccn3)n2)c1 [Example 74, 4-(3-Methoxyanilino)-2-(2-pyrazinyl)-6-(trifluoromethyl)pyrimidine]
- EC50 (T-47D cells): 364 nM
- T47 Ratio 48 hr (T-47D cells): 16.4
- EC50 (ZR-75-1 cells): 326 nM
- ZR Ratio 48 hr (ZR-75-1 cells): 13.1

SMILES: COc1ccc(OC)c(Nc2cc(C(F)(F)F)nc(-c3ccccc3)n2)c1 [Example 75, 4-(2,5-Dimethoxyanilino)-2-phenyl-6-(trifluoromethyl)pyrimidine]
- EC50 (T-47D cells): 2290 nM
- T47 Ratio 48 hr (T-47D cells): 16.3
- EC50 (ZR-75-1 cells): 3280 nM
- ZR Ratio 48 hr (ZR-75-1 cells): 7.8

SMILES: COc1ccc(C)c(Nc2cc(C(F)(F)F)nc(-c3cnccn3)n2)c1 [Example 80, 4-(5-Methoxy-2-methylanilino)-2-(2-pyrazinyl)-6-(trifluoromethyl)pyrimidine]
- EC50 (T-47D cells): 64 nM
- T47 Ratio 48 hr (T-47D cells): 8.5
- EC50 (ZR-75-1 cells): 243 nM
- ZR Ratio 48 hr (ZR-75-1 cells): 5.9

SMILES: COc1ccc(Cl)c(Nc2cc(C(F)(F)F)nc(-c3ccccc3)n2)c1 [Example 81, 4-(2-Chloro-5-methoxyanilino)-2-phenyl-6-(trifluoromethyl)pyrimidine]
- EC50 (T-47D cells): 5050 nM
- T47 Ratio 48 hr (T-47D cells): 12.7
- EC50 (ZR-75-1 cells): 5500 nM
- ZR Ratio 48 hr (ZR-75-1 cells): 5.0
